In patent US8343983B2, “Substituted pyrazolo-pyrimidine compounds” (ArQule, Inc., priority 2009, dated 2013):
Like-named read-outs stand apart in the source and are kept apart here.

Test system: cancer cells
Experiment: MTS assay: inhibition of cell growth (formazan absorbance at 492 nm after 72 hours with test compound)
Type: cell-based
Settings: inhibition class
Experimental: Cells were maintained at 37° C., 5% CO2 in DMEM media supplemented with 1% fetal bovine serum, penicillin/streptomycin and fungizone (Invitrogen). Cells were seeded into 96-well tissue culture plates at 3000 per well and cultured at 37° C. for 18 hours. Test compounds were dissolved and diluted to 300× in DMSO then diluted 1:40 in DMEM. Cells were incubated with test compounds for 72 hours followed by incubation with tetrazolium compound (3-(4,5-dimethylthiazol-2-yl)-5-(3-carboxymethoxyphenyl)-2-(4-sulfophenyl)-2H-tetrazolium, inner salt; MTS) and the electron coupling reagent, phenazine methosulfate (PMS) for 4 hours. […] The ability of compounds to inhibit cell growth in this assay is correlated with the reduction of dehydrogenase enzyme activity found in metabolically active cells. The measurement of the absorbance of the formazan was assessed using an ENVISION™ (Perkin Elmer) microplate reader at 492 nm. The calculated IC50 value is the concentration of the test compound that causes a 50% decrease in the absorbance. […] A=>79% inhibition, B=>50 to 79% inhibition, C=<50% inhibition.

[1] = Homo sapiens, DLD-1 cells, read-out: DLD-1, MTS 72 hours at 10 uM
[2] = Homo sapiens, KATO III cells, read-out: KATO III, MTS 72 hours at 10 uM
[3] = Homo sapiens, MDA-MB-231 cells, read-out: MDA-MB-231, MTS 72 hours at 10 uM
[4] = Homo sapiens, NCI-H1299 cells, read-out: NCI-H1299, MTS 72 hours at 10 uM
[5] = Homo sapiens, PC-3 cells, read-out: PC-3, MTS 72 hours at 10 uM
[6] = PACA-2 cells, read-out: PACA-2, MTS 72 hours at 10 uM

With `CC(C)Nc1nc2c3c(n[nH]c3n1)CCN2Cc1ccccc1` [Compound 60, 6-benzyl-N-isopropyl-2,6,7,8-tetrahydro-1,2,3,5,6-pentaazaacenaphthylen-4-amine] the inhibition at 10 µM [1] was < 50%, the inhibition at 10 µM [2] was < 50% and the inhibition at 10 µM [3] was < 50%. For the same compound, the inhibition at 10 µM [4] was < 50%, the inhibition at 10 µM [5] was < 50% and the inhibition at 10 µM [6] was < 50%.

With `O=C(NCc1ccccc1)C1CN(Cc2ccccc2)c2nc(NC3CCC3)nc3[nH]nc1c23` (stereo not drawn) [Compound 232, N,6-dibenzyl-4-(cyclobutylamino)-2,6,7,8-tetrahydro-1,2,3,5,6-pentaazaacenaphthylene-8-carboxamide] the inhibition at 10 µM [1] was < 50%, the inhibition at 10 µM [2] was < 50% and the inhibition at 10 µM [3] was < 50%. The inhibition at 10 µM [4] was < 50%, the inhibition at 10 µM [5] was < 50% and the inhibition at 10 µM [6] was < 50%.

For `c1ccc(CN2CCc3n[nH]c4nc(NCC5CCCCCC5)nc2c34)cc1` [Compound 67, 6-benzyl-N-(cycloheptylmethyl)-2,6,7,8-tetrahydro-1,2,3,5,6-pentaazaacenaphthylen-4-amine], the inhibition at 10 µM [1] was < 50%, the inhibition at 10 µM [2] was < 50% and the inhibition at 10 µM [3] was < 50%. The inhibition at 10 µM [4] was 50 to 79%, the inhibition at 10 µM [5] was < 50% and the inhibition at 10 µM [6] was 50 to 79%.

For `O=C(NCc1ccc2c(c1)OCO2)C1CN(Cc2ccccc2)c2nc(NCc3ccccc3)nc3[nH]nc1c23` (stereo not drawn) [Compound 234, N-(1,3-benzodioxol-5-ylmethyl)-6-benzyl-4-(benzylamino)-2,6,7,8-tetrahydro-1,2,3,5,6-pentaazaacenaphthylene-8-carboxamide], the inhibition at 10 µM [1] was > 79%, the inhibition at 10 µM [2] was > 79% and the inhibition at 10 µM [3] was > 79%. For the same compound, the inhibition at 10 µM [4] was > 79%, the inhibition at 10 µM [5] was > 79% and the inhibition at 10 µM [6] was 50 to 79%.

With `Clc1ccccc1CNc1nc2c3c(n[nH]c3n1)CCN2c1ccccc1` [Compound 209, N-(2-chlorobenzyl)-6-phenyl-2,6,7,8-tetrahydro-1,2,3,5,6-pentaazaacenaphthylen-4-amine] the inhibition at 10 µM [1] was < 50%, the inhibition at 10 µM [2] was 50 to 79% and the inhibition at 10 µM [3] was < 50%. The inhibition at 10 µM [4] was < 50%, the inhibition at 10 µM [5] was < 50% and the inhibition at 10 µM [6] was < 50%.

With `COc1ccc(CN2CCc3n[nH]c4nc(N5CCN(Cc6ccccc6)CC5)nc2c34)cc1` [Compound 114, 4-(4-benzylpiperazin-1-yl)-6-(4-methoxybenzyl)-2,6,7,8-tetrahydro-1,2,3,5,6-pentaazaacenaphthylene] the inhibition at 10 µM [1] was < 50%, the inhibition at 10 µM [2] was < 50% and the inhibition at 10 µM [3] was < 50%. The inhibition at 10 µM [4] was < 50%, the inhibition at 10 µM [5] was < 50% and the inhibition at 10 µM [6] was < 50%.

`Cc1cccc(N2CCN(c3nc4c5c(n[nH]c5n3)CCN4Cc3ccccc3)CC2)n1` [Compound 27, 6-benzyl-4-[4-(6-methylpyridin-2-yl)piperazin-1-yl]-2,6,7,8-tetrahydro-1,2,3,5,6-pentaazaacenaphthylene] was tested, and the inhibition at 10 µM [1] was < 50%, the inhibition at 10 µM [2] was < 50% and the inhibition at 10 µM [3] was < 50%. The inhibition at 10 µM [4] was < 50%, the inhibition at 10 µM [5] was < 50% and the inhibition at 10 µM [6] was < 50%.

`Fc1ccccc1CN1CCN(c2nc3c4c(n[nH]c4n2)CCN3Cc2ccccc2)CC1` [Compound 5, 6-benzyl-4-[4-(2-fluorobenzyl)piperazin-1-yl]-2,6,7,8-tetrahydro-1,2,3,5,6-pentaazaacenaphthylene] was tested, and the inhibition at 10 µM [1] was < 50%, the inhibition at 10 µM [2] was 50 to 79% and the inhibition at 10 µM [3] was > 79%. The inhibition at 10 µM [4] was < 50%, the inhibition at 10 µM [5] was > 79% and the inhibition at 10 µM [6] was < 50%.

With `CN(C)CCCNc1nc2c3c(n[nH]c3n1)C(C(=O)NCc1ccccc1)CN2Cc1ccccc1` (stereo not drawn) [Compound 223, N,6-dibenzyl-4-{[3-(dimethylamino)propyl]ami-no}-2,6,7,8-tetrahydro-1,2,3,5,6-pentaazaacenaphthylene-8-carboxamide] the inhibition at 10 µM [1] was < 50%, the inhibition at 10 µM [2] was < 50% and the inhibition at 10 µM [3] was < 50%. The inhibition at 10 µM [4] was < 50%, the inhibition at 10 µM [5] was < 50% and the inhibition at 10 µM [6] was < 50%.

With `COc1ccc(CN2CCCc3n[nH]c4nc(N5CCN(Cc6ccccc6)CC5)nc2c34)cc1` [Compound 254, 4-(4-benzylpiperazin-1-yl)-6-(4-methoxybenzyl)-6,7,8,9-tetrahydro-2H-1,2,3,5,6-pentaazabenzo[cd]azulene] the inhibition at 10 µM [1] was > 79%, the inhibition at 10 µM [2] was > 79% and the inhibition at 10 µM [3] was > 79%. For the same compound, the inhibition at 10 µM [4] was > 79%, the inhibition at 10 µM [5] was > 79% and the inhibition at 10 µM [6] was > 79%.

`Clc1cccc(CCNc2nc3c4c(n[nH]c4n2)CCN3Cc2ccccc2)c1` [Compound 12, 6-benzyl-N-[2-(3-chlorophenyl)ethyl]-2,6,7,8-tetrahydro-1,2,3,5,6-pentaazaacenaphthylen-4-amine] was tested, and the inhibition at 10 µM [1] was 50 to 79%, the inhibition at 10 µM [2] was 50 to 79% and the inhibition at 10 µM [3] was < 50%. The inhibition at 10 µM [4] was 50 to 79%, the inhibition at 10 µM [5] was < 50% and the inhibition at 10 µM [6] was < 50%.

`CSc1nc2c3c(nn(C)c3n1)CCN2Cc1ccccc1` [Compound 171, 6-benzyl-2-methyl-4-(methylsulfanyl)-2,6,7,8-tetrahydro-1,2,3,5,6-pentaazaacenaphthylene] was tested, and the inhibition at 10 µM [1] was > 79%, the inhibition at 10 µM [2] was > 79% and the inhibition at 10 µM [3] was > 79%. The inhibition at 10 µM [4] was 50 to 79%, the inhibition at 10 µM [5] was > 79% and the inhibition at 10 µM [6] was > 79%.

In the case of `COc1ccc(CN2CCc3n[nH]c4nc(NCCOc5ccccc5)nc2c34)cc1` [Compound 108, 6-(4-methoxybenzyl)-N-(2-phenoxyethyl)-2,6,7,8-tetrahydro-1,2,3,5,6-pentaazaacenaphthylen-4-amine], the inhibition at 10 µM [1] is reported as 50 to 79%, the inhibition at 10 µM [2] is reported as < 50% and the inhibition at 10 µM [3] is reported as < 50%. For the same compound, the inhibition at 10 µM [4] was < 50%, the inhibition at 10 µM [5] was < 50% and the inhibition at 10 µM [6] was > 79%.

With `COc1ccc(CN2CCc3n[nH]c4nc(Nc5ccc(N6CCN(C)CC6)cc5)nc2c34)cc1` [Compound 120, 6-(4-methoxybenzyl)-N-[4-(4-methylpiperazin-1-yl)phenyl]-2,6,7,8-tetrahydro-1,2,3,5,6-pentaazaacenaphthylen-4-amine] the inhibition at 10 µM [1] was > 79%, the inhibition at 10 µM [2] was > 79% and the inhibition at 10 µM [3] was > 79%. The inhibition at 10 µM [4] was 50 to 79%, the inhibition at 10 µM [5] was > 79% and the inhibition at 10 µM [6] was > 79%.

With `c1ccc(CN2CCc3n[nH]c4nc(NCc5cccnc5)nc2c34)cc1` [Compound 10, 6-benzyl-N-(pyridin-3-ylmethyl)-2,6,7,8-tetrahydro-1,2,3,5,6-pentaazaacenaphthylen-4-amine] the inhibition at 10 µM [1] was < 50%, the inhibition at 10 µM [2] was < 50% and the inhibition at 10 µM [3] was < 50%. For the same compound, the inhibition at 10 µM [4] was < 50%, the inhibition at 10 µM [5] was < 50% and the inhibition at 10 µM [6] was < 50%.

`c1ccc(N2CCc3n[nH]c4nc(NC5CCCCC5)nc2c34)cc1` [Compound 211, N-cyclohexyl-6-phenyl-2,6,7,8-tetrahydro-1,2,3,5,6-pentaazaacenaphthylen-4-amine] was tested, and the inhibition at 10 µM [1] was < 50%, the inhibition at 10 µM [2] was < 50% and the inhibition at 10 µM [3] was < 50%. The inhibition at 10 µM [4] was < 50%, the inhibition at 10 µM [5] was < 50% and the inhibition at 10 µM [6] was < 50%.

In the case of `O=C(NCC1CCCCC1)C1CN(Cc2ccccc2)c2nc(NCc3ccccc3)nc3[nH]nc1c23` (stereo not drawn) [Compound 240, 6-benzyl-4-(benzylamino)-N-(cyclohexylmethyl)-2,6,7,8-tetrahydro-1,2,3,5,6-pentaazaacenaphthylene-8-carboxamide], the inhibition at 10 µM [1] is reported as > 79%, the inhibition at 10 µM [2] is reported as > 79% and the inhibition at 10 µM [3] is reported as < 50%. For the same compound, the inhibition at 10 µM [4] was > 79%, the inhibition at 10 µM [5] was > 79% and the inhibition at 10 µM [6] was < 50%.
